Laboratory results taken from patent EP4122499A1, “FIBROBLAST ACTIVATION PROTEIN INHIBITORS AND USE THEREOF” (3B Pharmaceuticals GmbH, priority 2021, dated 2023).

These molecules were tested against T1, Recombinant mouse FAP (Mus musculus, UniProt P97321) (assay: FRET-based FAP protease activity assay (mouse)). Details: FRET-peptide substrate, 37°C.
T1 construct: purchased R&D systems 8647-SE
T1 sequence (P97321 1-761): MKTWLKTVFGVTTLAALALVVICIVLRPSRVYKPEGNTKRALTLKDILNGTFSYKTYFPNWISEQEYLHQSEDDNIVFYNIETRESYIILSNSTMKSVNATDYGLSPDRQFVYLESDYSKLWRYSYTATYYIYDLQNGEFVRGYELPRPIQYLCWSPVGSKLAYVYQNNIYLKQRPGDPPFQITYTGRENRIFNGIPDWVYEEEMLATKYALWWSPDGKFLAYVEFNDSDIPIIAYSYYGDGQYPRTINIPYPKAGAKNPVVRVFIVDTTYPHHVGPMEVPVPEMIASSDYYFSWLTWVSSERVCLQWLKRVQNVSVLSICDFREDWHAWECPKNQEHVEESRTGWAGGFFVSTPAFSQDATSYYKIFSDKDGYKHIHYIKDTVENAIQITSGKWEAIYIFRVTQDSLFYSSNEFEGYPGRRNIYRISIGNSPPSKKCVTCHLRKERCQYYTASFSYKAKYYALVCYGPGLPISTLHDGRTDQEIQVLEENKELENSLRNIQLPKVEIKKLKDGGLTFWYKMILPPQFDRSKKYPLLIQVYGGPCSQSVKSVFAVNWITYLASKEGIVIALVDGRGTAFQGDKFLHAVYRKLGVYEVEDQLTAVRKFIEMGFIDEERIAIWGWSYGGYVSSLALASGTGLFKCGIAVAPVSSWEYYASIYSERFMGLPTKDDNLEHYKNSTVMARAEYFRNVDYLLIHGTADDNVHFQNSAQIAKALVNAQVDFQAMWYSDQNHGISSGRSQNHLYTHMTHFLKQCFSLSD
Assay type: biochemical
Procedure: In order to determine the inhibitory activity a FRET-based FAP protease activity assay was established.
25 µL of a 30 µM substrate solution, diluted in assay buffer, was added. […] Four parameter logistic (4PL) curve fitting and pIC50 calculations were performed using ActivityBase software.

Row | pIC50 (mouseFAP) | Compound
1 | 8.3 | O=C(O)CN1CCN(CC(=O)O)CCN(CC(=O)N2CCN(CCCOc3ccc4nccc(C(=O)NCC(=O)N5CC(F)(F)C[C@H]5C(=O)c5nc6ccccc6o5)c4c3)CC2)CCN(CC(=O)O)CC1
2 | 8.5 | O=C(O)CN1CCN(CC(=O)O)CCN(CC(=O)N2CCN(CCCOc3ccc4nccc(C(=O)NCC(=O)N5CCC[C@H]5C(=O)c5nc6ccccc6o5)c4c3)CC2)CCN(CC(=O)O)CC1 [drawing 357]
3 | 8.9 | O=C(O)CN1CCN(CC(=O)O)CCN(CC(=O)N2CCN(CCNC(=O)c3cccc(-c4ccc5c(C(=O)NCC(=O)N6CCC[C@H]6C(=O)c6nc7ccccc7o6)ccnc5c4)c3)CC2)CCN(CC(=O)O)CC1 [drawing 352]
4 | 8.8 | N#C[C@@H]1CC(F)(F)CN1C(=O)CNC(=O)c1cc[n+]([O-])c2ccc(OCCCN3CCN(C(=O)CN4CCN(CC(=O)O)CCN(CC(=O)O)CCN(CC(=O)O)CC4)CC3)cc12
5 | 8.6 | O=C(O)CN1CCN(CC(=O)O)CCN(CC(=O)N2CCN(CCNC(=O)c3cccc(-c4ccc5nccc(C(=O)NCC(=O)N6CCC[C@H]6C(=O)c6nc7ccccc7o6)c5c4)c3)CC2)CCN(CC(=O)O)CC1 [drawing 353]
6 | 8.1 | O=C(O)CN1CCN(CC(=O)O)CCN(CC(=O)N2CCN(CCNC(=O)c3ccc(-c4ccc5nccc(C(=O)NCC(=O)N6CCC[C@H]6C(=O)c6nc7ccccc7o6)c5c4)cc3)CC2)CCN(CC(=O)O)CC1 [drawing 354]
7 | 8.7 | O=C(O)CN1CCN(CC(=O)O)CCN(CC(=O)NCCCNC(=O)c2ccc(-c3ccc4nccc(C(=O)NCC(=O)N5CCC[C@H]5C(=O)c5nc6ccccc6o5)c4c3)cc2)CCN(CC(=O)O)CC1

Further lines, the molecule ahead of its results:

Row | Compound | pIC50 (mouseFAP)
8 | O=C(O)CN1CCN(CC(=O)O)CCN(CC(=O)N2CCN(CCCOc3ccc4nccc(C(=O)NCC(=O)N5C[C@@H](F)C[C@H]5C(=O)c5nc6ccccc6o5)c4c3)CC2)CCN(CC(=O)O)CC1 [drawing 358] | 8.5
9 | O=C(O)CN1CCN(CC(=O)O)CCN(CC(=O)N2CCN(CCNC(=O)c3ccc(-c4ccc5nccc(C(=O)NCC(=O)N6C[C@@H](F)C[C@H]6C(=O)c6nc7ccccc7o6)c5c4)cc3)CC2)CCN(CC(=O)O)CC1 [drawing 360] | 7.9
10 | N#C[C@@H]1CC(F)(F)CN1C(=O)CNC(=O)c1ccnc2ccc(-c3ccc(S(=O)(=O)CCCNC(=O)CN4CCN(CC(=O)O)CCN(CC(=O)O)CCN(CC(=O)O)CC4)cc3)cc12 | 9
11 | O=C(O)CN1CCN(CC(=O)O)CCN(CC(=O)N2CCN(CCNC(=O)c3ccc(-c4ccc5nccc(C(=O)NCC(=O)N6CCC[C@H]6C(=O)c6nc7ccccc7o6)c5c4)cn3)CC2)CCN(CC(=O)O)CC1 [drawing 361] | 7.8
12 | O=C(O)CN1CCN(CC(=O)O)CCN(CC(=O)NCCCNC(=O)c2ccc(-c3ccc4nccc(C(=O)NCC(=O)N5CCC[C@H]5B(O)O)c4c3)cc2)CCN(CC(=O)O)CC1 | 8.5
13 | N#C[C@@H]1CC(F)(F)CN1C(=O)CNC(=O)c1ccnc2ccc(-c3ccc(C(=O)NCCCNC(=O)CN4CCN(CC(=O)O)CCN(CC(=O)O)CCN(CC(=O)O)CC4)cc3)cc12 | 9.2
14 | N#C[C@@H]1CCCN1C(=O)CNC(=O)c1ccnc2ccc(-c3ccc(C(=O)NCCCNC(=O)CN4CCN(CC(=O)O)CCN(CC(=O)O)CCN(CC(=O)O)CC4)cc3)cc12 | 9
15 | N#C[C@@H]1CC(F)(F)CN1C(=O)CNC(=O)c1ccnc2ccc(-c3ccc(C(=O)NCCN4CCN(C(=O)CN5CCN(CC(=O)O)CCN(CC(=O)O)CCN(CC(=O)O)CC5)CC4)cc3)cc12 | 8.9
16 | O=C(O)CN1CCN(CC(=O)O)CCN(CC(=O)N2CCN(CCNC(=O)c3ccc(-c4ccc5c(C(=O)NCC(=O)N6CCC[C@H]6C(=O)c6nc7ccccc7o6)ccnc5c4)cc3)CC2)CCN(CC(=O)O)CC1 [drawing 355] | 8.8
17 | N#C[C@@H]1CC(F)(F)CN1C(=O)CNC(=O)c1ccnc2ccc(-c3ccc(C(=O)NCCCNC(=O)CN4CCN(CC(=O)O)CCN(CC(=O)O)CCN(CC(=O)O)CC4)nc3)cc12 | 8.8

Same assay, conditions: FRET-peptide substrate, 37°C, read-out: pIC50 (mouseFAP) (converted)

Row | IC50 | Compound
18 | 3.98 nM | CC(C)(C)c1nnc(C(=O)[C@@H]2CCCN2C(=O)CNC(=O)c2ccnc3ccccc23)o1
19 | 2 nM | O=C(NCC(=O)N1CCC[C@H]1C(=O)c1nc2ccccc2o1)c1ccnc2ccccc12

Second part, the molecule before the results:

Row | Compound | IC50
20 | CS(=O)(=O)c1cccc(-c2ccc3c(C(=O)NCC(=O)N4CC(F)(F)C[C@H]4C#N)ccnc3c2)c1 [drawing 289] | 1.26 nM
21 | CS(=O)(=O)c1cccc(-c2ccc3nccc(C(=O)NCC(=O)N4CC(F)(F)C[C@H]4C#N)c3c2)c1 [drawing 288] | 1 nM
22 | CS(=O)(=O)c1ccc(-c2ccc3nccc(C(=O)NCC(=O)N4CC(F)(F)C[C@H]4C#N)c3c2)cc1 | 0.794 nM
